Consider two compounds from ChEMBL document CHEMBL4052642, “4-Methyl-6,7-dihydro-4H-triazolo[4,5-c]pyridine-Based P2X7 Receptor Antagonists: Optimization of Pharmacokinetic Properties Leading to the Identification of a Clinical Candidate” (J Med Chem, 2017).

In brackets after ≈: the same amount, converted by molar mass.

Series [1] has as its system Rattus norvegicus. The experiment in a line: Drug level in Sprague-Dawley rat treated with(R)-(2-Chloro-3-(trifluoromethyl)phenyl)(4-methyl-1-(pyrimidin-2-yl)-1,4,6,7-tetrahydro-5H-[1,2,3]triazolo[4,5-c]pyridin-5-yl)methanone at 1 mg/kg, iv or 5 mg/kg, po by LC-MS/MS analysis. Format: ADME, organism-based. Particulars: in vivo.
Series [2] is described as follows: Oral bioavailability in beagle dog at 2.5 mg/kg by LC-MS/MS analysis. The following applies: beagle, in vivo. Format: ADME, organism-based, Canis lupus familiaris.
Series [3] in a line: Protein binding in mouse plasma at 1 uM after 6 hrs by equilibrium dialysis method. It is filed as ADME, cell-free. Particulars: read-out: PPB (converted). Background: In equilibrium dialysis free small molecules cross a membrane that holds back macromolecules.
Series [4] can be described thus: Clearance in beagle dog at 0.5 mg/kg, iv or 2.5 mg/kg, po by LC-MS/MS analysis. Format: ADME, organism-based, Canis lupus familiaris. The following applies: in vivo.
Series [5] has as its system Rattus norvegicus. In words: Ex vivo receptor occupancy at P2X7 in po dosed Sprague-Dawley rat brain after 60 mins by autoradiography. Format: functional.
Series [6] can be described thus: Oral bioavailability in Sprague-Dawley rat at 5 mg/kg by LC-MS/MS analysis. It is filed as ADME, organism-based. The following applies: in vivo.
Series [7] relates to Rattus norvegicus. In words: Toxicity in rat assessed as decrease in activity at 250 to 1000 mg/kg administered single dose via oral gavage. Format: organism-based. Particulars: in vivo.
A short description of series [8]: Half life in Balb/c mouse at 1 mg/kg, iv by LC-MS/MS analysis. The following applies: in vivo. Format: ADME, organism-based.
A short description of series [9]: Half life in Sprague-Dawley rat at 1 mg/kg, iv by LC-MS/MS analysis. It is filed as ADME, organism-based. The following applies: in vivo.
The next series has as its target Cytochrome P450 3A4 (Homo sapiens, UniProt P08684). The experiment in a line: Inhibition of CYP3A4 in human liver microsomes using midazolam as substrate after 15 mins by LC-MS/MS analysis. Format: ADME. For orientation: Liver microsomes are a subcellular fraction often used to study metabolism.
The target of another series is T1, Cytochrome P450 2C8 (Homo sapiens, UniProt P10632).
T1 sequence (P10632 whole entry): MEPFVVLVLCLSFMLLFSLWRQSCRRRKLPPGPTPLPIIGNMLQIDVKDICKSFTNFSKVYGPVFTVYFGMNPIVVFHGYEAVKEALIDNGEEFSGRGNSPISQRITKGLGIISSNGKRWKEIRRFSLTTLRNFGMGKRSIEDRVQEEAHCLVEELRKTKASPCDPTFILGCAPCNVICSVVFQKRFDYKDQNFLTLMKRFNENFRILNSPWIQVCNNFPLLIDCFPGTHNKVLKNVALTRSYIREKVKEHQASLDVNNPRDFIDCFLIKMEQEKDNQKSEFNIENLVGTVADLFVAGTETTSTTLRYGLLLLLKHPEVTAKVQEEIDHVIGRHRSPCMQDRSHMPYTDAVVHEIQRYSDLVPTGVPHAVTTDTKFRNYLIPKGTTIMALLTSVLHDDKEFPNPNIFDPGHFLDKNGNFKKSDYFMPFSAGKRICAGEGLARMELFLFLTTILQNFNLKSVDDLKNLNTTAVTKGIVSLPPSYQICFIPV
The experiment in a line: Inhibition of CYP2C8 in human liver microsomes using paclitaxel as substrate after 15 mins by LC-MS/MS analysis. Format: ADME.

Series [10] deals with T2, Cytochrome P450 2C19 (Homo sapiens, UniProt P33261). In words: Drug metabolism assessed as recombinant human CYP2C19-mediated metabolite formation. It is filed as ADME. Particulars: recombinant enzyme.
T2 sequence (P33261 whole entry): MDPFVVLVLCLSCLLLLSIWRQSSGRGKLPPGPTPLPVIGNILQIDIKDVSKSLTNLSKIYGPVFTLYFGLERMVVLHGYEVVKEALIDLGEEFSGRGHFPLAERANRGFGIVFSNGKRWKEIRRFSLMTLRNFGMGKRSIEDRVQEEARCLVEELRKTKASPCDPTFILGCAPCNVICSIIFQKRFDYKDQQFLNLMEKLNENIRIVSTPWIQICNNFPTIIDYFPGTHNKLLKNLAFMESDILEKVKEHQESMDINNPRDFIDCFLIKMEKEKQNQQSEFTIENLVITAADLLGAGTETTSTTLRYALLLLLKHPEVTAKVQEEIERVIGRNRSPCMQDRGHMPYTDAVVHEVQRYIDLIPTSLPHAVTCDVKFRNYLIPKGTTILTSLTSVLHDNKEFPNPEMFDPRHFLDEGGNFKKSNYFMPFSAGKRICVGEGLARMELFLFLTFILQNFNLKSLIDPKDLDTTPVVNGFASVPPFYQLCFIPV
Series [11] has as its target Voltage-gated inwardly rectifying potassium channel KCNH2 (Homo sapiens, UniProt Q12809). In words: Inhibition of [3H]-dofetilide binding to human ERG expressed in HEK293 cells. It is filed as cell-based.
Series [12] is described as follows: Clearance in cynomolgus monkey at 1 mg/kg, iv or 5 mg/kg, po by LC-MS/MS analysis. Particulars: in vivo. Format: ADME, organism-based, Macaca fascicularis.
Series [13] in a line: Volume of distribution at steady state in beagle dog at 0.5 mg/kg, iv or 2.5 mg/kg, po by LC-MS/MS analysis. Particulars: in vivo, read-out: Vdss. It is filed as ADME, organism-based, Canis lupus familiaris.
The nature of series [14]: Ratio of drug level in po dosed Sprague-Dawley rat brain to plasma. It is filed as ADME, organism-based. The following applies: read-out: BPR.
The target in a further series is T3, Cytochrome P450 1A2 (Homo sapiens, UniProt P05177).
T3 sequence (P05177 whole entry): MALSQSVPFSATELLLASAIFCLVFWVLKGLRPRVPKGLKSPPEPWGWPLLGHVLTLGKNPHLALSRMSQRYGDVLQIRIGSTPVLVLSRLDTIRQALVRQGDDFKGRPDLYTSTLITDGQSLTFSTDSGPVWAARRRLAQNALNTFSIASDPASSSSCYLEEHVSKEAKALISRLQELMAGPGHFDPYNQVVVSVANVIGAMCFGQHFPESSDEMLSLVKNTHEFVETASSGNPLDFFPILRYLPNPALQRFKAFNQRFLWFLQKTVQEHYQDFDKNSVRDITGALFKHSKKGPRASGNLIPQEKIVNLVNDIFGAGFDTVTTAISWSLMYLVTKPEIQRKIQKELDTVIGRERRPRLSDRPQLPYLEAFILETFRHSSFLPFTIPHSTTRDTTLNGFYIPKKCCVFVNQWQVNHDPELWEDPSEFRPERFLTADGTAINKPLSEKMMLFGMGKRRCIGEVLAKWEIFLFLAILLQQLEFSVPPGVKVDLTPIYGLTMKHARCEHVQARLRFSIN
In words: Inhibition of CYP1A2 in human liver microsomes using phenacetin as substrate after 15 mins by LC-MS/MS analysis. It is filed as ADME.

For series [15], the system named is Rattus norvegicus. The experiment in a line: Ex vivo receptor occupancy at P2X7 in po dosed Sprague-Dawley rat brain assessed as plasma concentration required to achieve EC50 after 60 mins by autoradiography. It is filed as functional, organism-based.
Series [16] in a line: Solubility of compound in phosphate buffer at pH 7 after 3 days. Format: physicochemical.
The nature of series [17]: Oral bioavailability in Balb/c mouse at 5 mg/kg by LC-MS/MS analysis. It is filed as ADME, organism-based. The following applies: in vivo.
For series [18], the target named is T4, Cytochrome P450 2C9 (Homo sapiens, UniProt P11712). In words: Drug metabolism assessed as recombinant human CYP2C9-mediated metabolite formation. Particulars: recombinant enzyme. It is filed as ADME.
T4 sequence (P11712 whole entry): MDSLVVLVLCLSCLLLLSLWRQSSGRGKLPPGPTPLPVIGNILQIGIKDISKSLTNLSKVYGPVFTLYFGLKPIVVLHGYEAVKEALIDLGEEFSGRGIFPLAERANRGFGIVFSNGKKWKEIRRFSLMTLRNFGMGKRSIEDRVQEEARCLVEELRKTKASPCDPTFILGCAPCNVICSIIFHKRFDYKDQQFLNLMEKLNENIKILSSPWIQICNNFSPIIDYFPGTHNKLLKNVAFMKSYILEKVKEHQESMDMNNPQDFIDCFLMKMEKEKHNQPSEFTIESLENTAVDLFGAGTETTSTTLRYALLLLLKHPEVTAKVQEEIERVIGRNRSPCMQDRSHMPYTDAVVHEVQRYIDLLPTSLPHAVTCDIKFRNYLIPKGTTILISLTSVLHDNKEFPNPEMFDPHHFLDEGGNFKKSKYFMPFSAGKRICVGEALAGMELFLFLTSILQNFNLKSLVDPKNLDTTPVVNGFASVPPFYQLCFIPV
The target in series [19] is T4, Cytochrome P450 2C9. The experiment in a line: Inhibition of CYP2C9 in human liver microsomes using diclofenac as substrate after 15 mins by LC-MS/MS analysis. Format: ADME.
The nature of series [20]: Volume of distribution at steady state in cynomolgus monkey at 1 mg/kg, iv or 5 mg/kg, po by LC-MS/MS analysis. It is filed as ADME, organism-based, Macaca fascicularis. Particulars: in vivo, read-out: Vdss.
Series [21] has as its system Rattus norvegicus. In words: Toxicity in rat assessed as ataxia at 500 to 1000 mg/kg administered single dose via oral gavage. It is filed as organism-based. Particulars: in vivo.
A short description of series [22]: Drug excretion in Sprague-Dawley rat at 1 mg/kg, iv or 5 mg/kg, po by LC-MS/MS analysis. Format: ADME, organism-based. Particulars: in vivo, read-out: Drug excretion.
Series [23] is described as follows: Volume of distribution at steady state in Sprague-Dawley rat at 1 mg/kg, iv or 5 mg/kg, po by LC-MS/MS analysis. Format: ADME, organism-based. Particulars: in vivo, read-out: Vdss.
Series [24] is described as follows: Half life in cynomolgus monkey at 1 mg/kg, iv by LC-MS/MS analysis. The following applies: in vivo. Format: ADME, organism-based, Macaca fascicularis.
Series [25] relates to Rattus norvegicus. In words: Toxicity in rat assessed as increase in liver weight at 50 to 150 mg/kg administered via oral gavage on day 1 and day 4. Format: organism-based. The following applies: in vivo.
Series [26] in a line: Clearance in Balb/c mouse at 1 mg/kg, iv or 5 mg/kg, po by LC-MS/MS analysis. The following applies: in vivo. Format: ADME, organism-based.
Series [27] in a line: Volume of distribution at steady state in Balb/c mouse at 1 mg/kg, iv or 5 mg/kg, po by LC-MS/MS analysis. It is filed as ADME, organism-based. Particulars: in vivo, read-out: Vdss.
Series [28] concerns the target T2, Cytochrome P450 2C19. The experiment in a line: Inhibition of CYP2C19 in human liver microsomes using S-mephenytoin as substrate after 15 mins by LC-MS/MS analysis. It is filed as ADME.
A short description of series [29]: Protein binding in human plasma at 1 uM after 6 hrs by equilibrium dialysis method. The following applies: read-out: PPB (converted). It is filed as ADME, cell-free.
Series [30] in a line: Protein binding in rat plasma at 1 uM after 6 hrs by equilibrium dialysis method. Format: ADME, cell-free. Particulars: read-out: PPB (converted).
In series [31] the test system is Rattus norvegicus. In words: Toxicity in rat assessed as autoinduction at 50 to 150 mg/kg administered via oral gavage on day 1 and day 4. It is filed as organism-based. The following applies: in vivo.
Series [32] can be described thus: Clearance in Sprague-Dawley rat at 1 mg/kg, iv or 5 mg/kg, po by LC-MS/MS analysis. It is filed as ADME, organism-based. The following applies: in vivo.
Series [33] deals with Rattus norvegicus. The experiment in a line: Drug metabolism in Sprague-Dawley rat assessed as formation of (R)-(2-chloro-3-(trifluoromethyl)phenyl)(4-methyl-1,4,6,7-tetrahydro-5H-[1,2,3]triazolo[4,5-c]pyridin-5-yl)methanone at 1 mg/kg, iv or 5 mg/kg, po by LC-MS/MS analysis. The following applies: in vivo. It is filed as ADME, organism-based.
The target of the next series is Cytochrome P450 2D6 (Homo sapiens, UniProt P10635). The experiment in a line: Inhibition of CYP2D6 in human liver microsomes using dextromethorphan as substrate after 15 mins by LC-MS/MS analysis. It is filed as ADME.
Chain of Cytochrome P450 2D6 (P10635 whole entry): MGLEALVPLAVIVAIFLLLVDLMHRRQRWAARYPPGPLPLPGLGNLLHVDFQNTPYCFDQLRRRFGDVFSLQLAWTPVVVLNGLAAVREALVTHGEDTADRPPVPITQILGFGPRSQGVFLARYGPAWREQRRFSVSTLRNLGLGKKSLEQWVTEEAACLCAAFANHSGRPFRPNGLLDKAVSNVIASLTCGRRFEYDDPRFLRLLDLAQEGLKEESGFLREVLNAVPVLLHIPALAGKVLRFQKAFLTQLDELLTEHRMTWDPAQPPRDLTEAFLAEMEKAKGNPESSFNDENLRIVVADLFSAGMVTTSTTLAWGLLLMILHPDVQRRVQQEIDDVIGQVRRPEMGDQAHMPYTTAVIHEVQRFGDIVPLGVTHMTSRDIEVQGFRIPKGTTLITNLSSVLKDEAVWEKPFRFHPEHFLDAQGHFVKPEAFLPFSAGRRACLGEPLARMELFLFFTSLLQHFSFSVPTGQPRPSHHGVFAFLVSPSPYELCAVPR
The nature of series [34]: Oral bioavailability in cynomolgus monkey at 5 mg/kg by LC-MS/MS analysis. Format: ADME, organism-based, Macaca fascicularis. The following applies: in vivo.
Series [35] can be described thus: Solubility of compound in phosphate buffer at pH 2 after 3 days. Format: physicochemical.
Series [36] is described as follows: Half life in beagle dog at 0.5 mg/kg, iv by LC-MS/MS analysis. Format: ADME, organism-based, Canis lupus familiaris. Particulars: in vivo.
Series [37] has as its system Rattus norvegicus. In words: Toxicity in rat assessed as hepatic lipidosis at 50 to 350 mg/kg administered via oral gavage on day 1 and day 4 measured on day 5 by hematoxylin/eosin staining-based microscopic method. It is filed as organism-based. The following applies: in vivo.
The subject of the next series is Plasma. In words: Plasma concentration in rat at 250 mg/kg administered single dose via oral gavage. It is filed as ADME, organism-based. The following applies: in vivo.

Chain of Voltage-gated inwardly rectifying potassium channel KCNH2 (Q12809 whole entry): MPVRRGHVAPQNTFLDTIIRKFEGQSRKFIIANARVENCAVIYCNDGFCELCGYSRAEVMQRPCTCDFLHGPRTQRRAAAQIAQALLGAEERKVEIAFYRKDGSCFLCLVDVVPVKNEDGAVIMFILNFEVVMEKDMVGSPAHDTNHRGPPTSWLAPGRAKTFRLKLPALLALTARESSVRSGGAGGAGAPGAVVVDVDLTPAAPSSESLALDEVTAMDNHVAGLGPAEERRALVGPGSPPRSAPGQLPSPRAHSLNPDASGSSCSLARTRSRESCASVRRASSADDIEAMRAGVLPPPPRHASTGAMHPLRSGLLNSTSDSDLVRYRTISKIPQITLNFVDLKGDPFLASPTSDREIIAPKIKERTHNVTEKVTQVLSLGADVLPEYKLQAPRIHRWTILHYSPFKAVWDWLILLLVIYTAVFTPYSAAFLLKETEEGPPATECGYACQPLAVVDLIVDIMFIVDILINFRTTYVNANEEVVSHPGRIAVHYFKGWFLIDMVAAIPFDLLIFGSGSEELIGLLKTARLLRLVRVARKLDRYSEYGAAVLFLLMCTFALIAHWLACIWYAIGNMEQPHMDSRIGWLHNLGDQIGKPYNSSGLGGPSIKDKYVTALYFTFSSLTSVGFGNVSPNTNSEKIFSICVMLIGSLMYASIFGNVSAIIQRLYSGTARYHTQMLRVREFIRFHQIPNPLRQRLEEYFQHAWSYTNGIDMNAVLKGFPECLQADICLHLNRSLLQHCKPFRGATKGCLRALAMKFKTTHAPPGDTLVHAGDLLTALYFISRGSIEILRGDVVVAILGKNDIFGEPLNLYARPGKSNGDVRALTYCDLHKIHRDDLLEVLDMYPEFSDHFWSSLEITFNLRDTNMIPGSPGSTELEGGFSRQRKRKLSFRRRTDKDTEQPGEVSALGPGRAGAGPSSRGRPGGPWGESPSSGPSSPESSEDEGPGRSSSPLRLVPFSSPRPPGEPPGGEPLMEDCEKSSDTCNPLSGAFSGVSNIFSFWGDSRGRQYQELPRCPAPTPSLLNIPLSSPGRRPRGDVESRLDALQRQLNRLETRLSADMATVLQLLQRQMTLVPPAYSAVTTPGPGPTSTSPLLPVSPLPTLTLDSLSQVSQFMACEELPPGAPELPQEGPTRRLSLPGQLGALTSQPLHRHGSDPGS
Chain of Cytochrome P450 3A4 (P08684 whole entry): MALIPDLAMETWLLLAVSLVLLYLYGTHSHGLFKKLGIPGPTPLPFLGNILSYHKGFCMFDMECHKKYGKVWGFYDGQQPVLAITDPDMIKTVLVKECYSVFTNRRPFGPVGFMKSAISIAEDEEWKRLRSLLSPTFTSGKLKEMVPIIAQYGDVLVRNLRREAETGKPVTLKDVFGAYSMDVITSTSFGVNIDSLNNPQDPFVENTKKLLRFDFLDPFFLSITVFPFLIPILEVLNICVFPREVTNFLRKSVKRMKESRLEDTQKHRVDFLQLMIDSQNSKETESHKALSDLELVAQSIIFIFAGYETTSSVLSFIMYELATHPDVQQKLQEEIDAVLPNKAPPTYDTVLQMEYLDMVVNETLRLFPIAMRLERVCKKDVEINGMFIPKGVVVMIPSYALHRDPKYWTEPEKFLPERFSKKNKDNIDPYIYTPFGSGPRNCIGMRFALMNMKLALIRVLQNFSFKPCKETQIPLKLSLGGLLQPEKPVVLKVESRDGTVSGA

As to `C[C@@H]1c2nn[nH]c2CCN1C(=O)c1cccc(C(F)(F)F)c1Cl`, the Drug metabolism result in the series on Rattus norvegicus [1] is on record as “Metabolite_Detected”.
In the case of `C[C@@H]1c2nnn(-c3ncccn3)c2CCN1C(=O)c1cccc(C(F)(F)F)c1Cl`, the bioavailability (in general, the share of a dose that reaches the circulation, judged against a reference dose that is usually intravenous) in [2] worked out at 70%; in series [6], 92%; in series [17], 61%; in [34], 5%. In addition, the fraction unbound at 6 h, 1 µM in series [3] is 0.074; in series [29], 0.084; in series [30], 0.076. The clearance in [4] worked out at 1.4 mL/min/kg; in series [12] it was 19 mL/min/kg; in series [26], 32 mL/min/kg; in [32], 66 mL/min/kg. The Occ result in the series on Rattus norvegicus [5] is “Dose-dependent effect”. Besides, the ED50 (in general, the midpoint of the dose-response relation) in the series with Rattus norvegicus [5] (1 h) was found to be 0.9 mg/kg. Besides, the Activity result in the series on Rattus norvegicus [7], in the series on Rattus norvegicus [21], with Rattus norvegicus [25], with Rattus norvegicus [31] and in the series with Rattus norvegicus [37] was “Toxic” in each case. Moreover, the half-life (as a rule, how long it takes for the measured level to halve) in series [8] is 24 min; in [9] it was 30 min; in [24] it was 48 min; in series [36], 660 min. Further, the IC50 (against Cytochrome P450 3A4; on Cytochrome P450 2C8; in series [11]; on Cytochrome P450 1A2; at Cytochrome P450 2C9 [19]; against Cytochrome P450 2C19 [28]) was > 10 µM throughout. Moreover, the IC50 (usually the concentration that gives 50% inhibition) against Cytochrome P450 2D6 is > 10 µM. Further, the Drug metabolism result on Cytochrome P450 2C19 [10], at Cytochrome P450 2C9 [18] and in the series on Rattus norvegicus [33] was “Metabolite_Detected” each time. Also, the Vd was 1.3 L/kg in series [13], 0.9 L/kg in series [20], 1.5 L/kg in series [23] and 1.1 L/kg in series [27]. Besides, in [14], the Kp worked out at 0.8. Further, in the series with Rattus norvegicus [15], the Cp was found to be 27 ng/mL. The solubility – broadly, the concentration that dissolves in the medium under given conditions – at 72 h in series [16] was 180 µM (≈ 76.1 µg/mL); in [35], > 400 µM. Besides, in [22], the dose excreted was 0.4%. Further, the concentration with Plasma turned out to be 175 µM.
